Columns and labels:
[1] = tested on: PC12 cell; parameters: method as in PMID 22242450; details: cited from earlier work
[2] = tested on: 4-AP-induced seizures; test: 4-AP-induced seizures in mice; format: in vivo; details: 4-AP 13 mg/kg; for latency of seizure onset prolonged by: vs control
Method: (§1) KA was dissolved in saline and the pH was adjusted to neutrality. The final concentration of KA was 0.7 µg/µl, and the convulsant dose was 1 µl (i.c.v.). […] The selective adenosine receptor antagonist DPCPX or SCH58261 was administered (i.p.) 5 min before administration of B2 or vehicle.
Mice were injected with B2 (1.25, 5, 20 mg/kg), carbamazepine (80 mg/kg) or vehicle 20 min before administration of strychnine (1.5 mg/kg) or 4-AP (13 mg/kg). […] The time of latency to seizure onset and mortality rate were recorded.

[3] = target: T1, A2A adenosine receptor (Rattus norvegicus, UniProt P30543); test: Radioligand binding, [3H]MSX-2 displacement in rat striatal membranes; details: 0.75 nM [3H]MSX-2
T1 construct: from tissue; host or cells: striatum of male Wistar rats
Method: Male Wistar rats were sacrificed. The cerebral cortex and striatum were then removed and homogenized in 10 volumes of ice-cold 50 mM Tris–HCl buffer (pH 7.4). The homogenates were centrifuged (48,000 ×g) at 4°C for 10 min, the supernatant decanted, and the pellet resuspended in the same volume of buffer before being centrifuged again. The final pellets were resuspended in 50 mM Tris–HCl buffer containing adenosine deaminase (1.2 U per mg of protein) to remove endogenous adenosine.
Binding affinity at adenosine A2A receptors was tested in rat striatal membranes using 0.75 nM [^3H]MSX-2 (104.8 Ci/mmol). The binding assay was carried out in Tris–HCl buffer (50 mM, pH 7.4) as previously described, [12]. Briefly, assays were performed by first incubating the mixtures on a shaking water-bath at 25°C for 30 min. Termination of the incubation was performed by rapid filtration through GF/B glass fiber filters. The radioactivity on the filter was measured using a scintillation counter. […] Inhibition curves were determined using eight different concentrations ranging from 10^−5 to 10^−8 M. The inhibition constants (Ki) were calculated using an equation from Cheng and Prusoff.

[4] = target: T2, recombinant human adenosine A2A receptor (Homo sapiens, UniProt P29274); test: cAMP accumulation assay in CHO cells expressing A2A receptor; format: cell-based; details: CHO cells expressing human A2A receptors; read-out: EC50, elevation of cAMP levels
T2 construct: expressed in transfected cells; host or cells: CHO cells (provided by Professor R. B. Su)
Method: Chinese hamster ovary (CHO) cells expressing recombinant human A1/A2A receptors (provided by Professor R. B. Su of the Institute of Pharmacology and Toxicology, Academy of Military Medical Sciences, Beijing, China) were cultured in Dulbecco’s Modified Eagles Medium with the F12 nutrient mixture (DMEM/F12) containing no nucleosides, and with 10% fetal calf serum, penicillin (100 U/ml), streptomycin (100 µg/ml), L-glutamine (2 mM), and Geneticin at 37°C in a 5% CO2/95% atmosphere. The cells used to determine cAMP levels had viability >95%, as assessed by trypan blue exclusion.
Intracellular cyclic adenosine monophosphate (cAMP) levels were measured using a competitive protein binding method. To measure A1/A2A receptor-mediated accumulation of cAMP, cells were grown as confluent monolayers in 24-well cluster dishes. The cells were washed twice with 2 mL of medium containing 20 mM HEPES that had been prewarmed to 37°C, pH 7.4. The cells were then preincubated for 15 min in 0.4 mL fresh medium containing 30 µM of the cAMP phosphodiesterase inhibitor rolipram. B2 was added in 0.1 mL of medium and incubations continued for 15 min. The reaction was then terminated by removing the supernatant, and cells were lysed with the addition of 500 µl of 0.1 M ice-cold HCl. The cell lysate was centrifuged (4,000×g) at 4°C for 10 min. […] Bound radioactivity was measured by liquid scintillation spectrometry.

[5] = tested on: rat adenosine A2A receptors; parameters: method as in PMID 22242450; details: cited from earlier work
[6] = tested on: c-Fos expression in the hippocampus; test: PTZ-induced c-Fos expression, western blot; format: in vivo, mice; details: B2 5 mg/kg + PTZ 85 mg/kg, 2 h, PTZ alone 8 times
Method: Mice were injected with either B2 (5 mg/kg) or vehicle 20 min before administration of PTZ (85 mg/kg). Two hours later, mice were either anesthetized for c-Fos analysis using immunohistochemistry or decapitated or western blotting.
Mice were decapitated and the hippocampus was quickly dissected on ice. The hippocampus was then homogenized in 20 volumes of cell lysis buffer. The homogenates were incubated on ice for 15 min and centrifuged at 12000×g for 5 min at 4°C. The supernatant containing the crude nuclear extract was collected and the protein content estimated using a Bradford assay. Protein samples […] were electrophoresed in 10% SDS-PAGE at 150 V for 3 h. The samples were then electroblotted onto nitrocellulose membranes at 20 V. The membranes were blocked using 5% dry non-fat milk in 0.1% TBST solution, and incubated overnight on a shaker with anti-c-Fos rabbit antibody (SC-52g) diluted 1∶800 (Santa Cruz Biotechnology). On the following day, the blots were washed using 0.1% TBST solution and incubated for 2 h with anti-rabbit peroxidase-conjugated secondary antibody. The blots were then washed using 0.1% TBST solution. After adding super ECL plus solution, the protein bands were detected using ECL (Fuji Digital Science), as described by the manufacturer. The optical density of the intensity of the bands was measured using Gel Pro Analyzer (version 4.0).

[7] = tested on: PTZ-induced seizures; test: PTZ-induced seizures with adenosine receptor antagonist pretreatment; format: in vivo, mice; details: B2 5 mg/kg; PTZ 85 mg/kg; P<0.05
Method: as §1
Twenty min later, mice were admdinistered with PTZ (85 mg/kg).

[8] = tested on: KA-induced seizures; test: KA-induced seizures in mice; format: in vivo; details: KA 0.7 µg i.c.v.
Method: as §1
The left lateral ventricle (0.6 mm posterior, 1.9 mm lateral, and 2.1 mm ventral to bregma) was cannulated as described. After a 7-day recovery period, mice were injected with either B2 (1.25, 5, 20 mg/kg) or vehicle. Twenty minutes later, an intracerebroventricular injection of KA (0.7 µg/µl, 1 µl) was administered without anesthesia. The animals were then observed for a minimum of 60 min. Seizure severity was determined according to the scoring system described by Racine. At the end of the experiment, cannulae placement was verified.

T1 sequence (P30543 whole entry): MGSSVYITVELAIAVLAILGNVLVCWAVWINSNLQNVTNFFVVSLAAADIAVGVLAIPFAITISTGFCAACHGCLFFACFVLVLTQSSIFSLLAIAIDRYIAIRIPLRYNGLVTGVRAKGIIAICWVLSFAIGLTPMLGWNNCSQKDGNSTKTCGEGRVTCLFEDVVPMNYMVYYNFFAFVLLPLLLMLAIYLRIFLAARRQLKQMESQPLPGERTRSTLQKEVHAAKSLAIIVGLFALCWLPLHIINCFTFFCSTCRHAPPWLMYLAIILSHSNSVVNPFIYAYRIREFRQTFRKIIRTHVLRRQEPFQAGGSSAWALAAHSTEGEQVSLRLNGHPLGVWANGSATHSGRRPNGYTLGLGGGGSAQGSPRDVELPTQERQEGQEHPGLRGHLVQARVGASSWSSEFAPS
T2 sequence (P29274 whole entry): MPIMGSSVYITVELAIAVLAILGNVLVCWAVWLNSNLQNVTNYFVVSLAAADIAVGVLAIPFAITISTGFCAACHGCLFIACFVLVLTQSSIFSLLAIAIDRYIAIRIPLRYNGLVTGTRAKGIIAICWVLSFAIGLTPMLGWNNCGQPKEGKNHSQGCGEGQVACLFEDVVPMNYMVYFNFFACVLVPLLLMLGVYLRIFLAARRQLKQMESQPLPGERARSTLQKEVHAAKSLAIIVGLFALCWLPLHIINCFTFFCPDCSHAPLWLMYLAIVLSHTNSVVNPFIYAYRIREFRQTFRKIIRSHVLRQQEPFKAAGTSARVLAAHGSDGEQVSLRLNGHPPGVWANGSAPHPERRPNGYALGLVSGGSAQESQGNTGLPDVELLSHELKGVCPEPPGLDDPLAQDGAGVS

COc1cc(CNc2ncnc3c2ncn3[C@@H]2O[C@H](CO)[C@@H](O)[C@H]2O)ccc1O [B2, N^6-(3-methoxyl-4-hydroxybenzyl) adenine riboside]
PC12 cell survival in serum deprivation-induced apoptosis [1]: remarkably increased
latency of seizure onset prolonged by ([2]; B2 1.25 mg/kg i.p.): 25%
latency of seizure onset prolonged by ([2]; B2 5 mg/kg i.p.): 135%
latency of seizure onset prolonged by ([2]; B2 20 mg/kg i.p.): 96%
effect on mortality rate ([2]; B2 1.25, 5, 20 mg/kg i.p., control 100%): did not have a significant effect
Ki [3]: 370 nM
EC50 [4]: 320 nM
affinity for rat adenosine A2A receptors [5]: moderate affinity
c-Fos expression in the hippocampus, times larger than vehicle control group [6]: 1.5 times
effect on latency to seizure onset [7]: significantly prolonged
average seizure duration ([8]; B2 1.25 mg/kg i.p.): 5.3 ± 0.8 min
average seizure duration ([8]; B2 5 mg/kg i.p.): 3.7 ± 0.7 min
average seizure duration ([8]; B2 20 mg/kg i.p.): 3.3 ± 1.0 min
